In ChEMBL document CHEMBL1201862, “PubChem BioAssay data set” (2004):
The source made the active and inactive calls. Rule as the data show it: actives have a measured IC50 and inactives only a lower limit.

Target: Envelope glycoprotein gp160 (Human immunodeficiency virus 1, UniProt Q6QLK5)
Assay: cell-free HIV fusion peptide-binding blockers – biochemical, uHTS, fluorescence dequenching, […] (AID 1986)

Envelope glycoprotein gp160, sequence (Q6QLK5 whole entry, the tested form may be a part): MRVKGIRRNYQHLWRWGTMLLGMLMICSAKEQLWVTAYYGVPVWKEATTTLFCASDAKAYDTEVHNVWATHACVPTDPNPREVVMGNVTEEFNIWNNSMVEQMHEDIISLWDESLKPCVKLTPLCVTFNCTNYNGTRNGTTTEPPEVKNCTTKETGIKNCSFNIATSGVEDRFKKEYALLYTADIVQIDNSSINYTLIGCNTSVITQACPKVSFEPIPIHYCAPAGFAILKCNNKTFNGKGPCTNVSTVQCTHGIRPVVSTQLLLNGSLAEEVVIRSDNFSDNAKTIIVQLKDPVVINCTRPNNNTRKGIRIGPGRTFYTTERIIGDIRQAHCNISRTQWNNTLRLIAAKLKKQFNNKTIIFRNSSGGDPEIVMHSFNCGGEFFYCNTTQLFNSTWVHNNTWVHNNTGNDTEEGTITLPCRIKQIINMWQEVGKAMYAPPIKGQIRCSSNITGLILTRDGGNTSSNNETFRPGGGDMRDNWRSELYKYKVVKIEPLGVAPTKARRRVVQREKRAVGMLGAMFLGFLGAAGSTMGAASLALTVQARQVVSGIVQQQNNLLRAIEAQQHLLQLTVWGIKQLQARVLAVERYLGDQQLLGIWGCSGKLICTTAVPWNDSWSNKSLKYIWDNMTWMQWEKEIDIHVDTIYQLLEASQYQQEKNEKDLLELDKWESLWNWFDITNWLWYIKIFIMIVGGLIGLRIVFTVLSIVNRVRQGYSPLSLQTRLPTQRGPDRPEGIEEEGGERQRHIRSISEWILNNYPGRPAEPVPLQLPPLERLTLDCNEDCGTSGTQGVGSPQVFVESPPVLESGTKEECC

CCOC(=O)C1=C(C)N=c2s/c(=C/c3ccc(OCC(=O)O)cc3)c(=O)n2C1c1ccc(SC)cc1 (configuration not stated)
IC50: 12.7 µM (active)

C=CCOC(=O)C1=C(C)N=c2s/c(=C3\C(=O)N(CC(=O)O)c4ccccc43)c(=O)n2C1c1ccc(OC)cc1 (configuration not stated)
IC50: 18 µM (active)
